How the values were obtained:
Format in all cases: binding
[1] = biological target: IsdB-N2 (C-terminal NEAT domain of IsdB) (Staphylococcus aureus, UniProt Q7A656); test: […] Å crystal structure
[2] = biological target: IsdA-N1 (IsdA NEAT domain) (Staphylococcus aureus, UniProt Q7A655)
IsdB-N2 M362L = IsdB-N2 M362L (Staphylococcus aureus, UniProt Q7A656, M362L); test: Trp fluorescence quenching

SMILES: C=CC1=C(C)C2=Cc3c(C=C)c(C)c4[n]3[Fe][n]3c(c(C)c(CCC(=O)O)c3=CC3=NC(=C4)C(C)=C3CCC(=O)O)=CC1=N2 [heme]
- Kd [1]: < 380 nM
- stopped-flow Soret spectroscopy of heme transfer from holo-IsdB-N2 to apo-IsdA-N [2]: 82 ± 6 s^–1
- Kd (IsdB-N2 M362L): < 490 nM

— article PMC3114464 (Biochemistry, 2011)
